# From ChEMBL document CHEMBL1133086, “Design, synthesis, and X-ray crystal structure of a potent dual inhibitor of thymidylate synthase and dihydrofolate reductase as an antitumor agent” (J Med Chem, 2000)
# T1: Thymidylate synthase (Lactobacillus casei, UniProt P00469)
# T1 sequence (P00469 whole entry): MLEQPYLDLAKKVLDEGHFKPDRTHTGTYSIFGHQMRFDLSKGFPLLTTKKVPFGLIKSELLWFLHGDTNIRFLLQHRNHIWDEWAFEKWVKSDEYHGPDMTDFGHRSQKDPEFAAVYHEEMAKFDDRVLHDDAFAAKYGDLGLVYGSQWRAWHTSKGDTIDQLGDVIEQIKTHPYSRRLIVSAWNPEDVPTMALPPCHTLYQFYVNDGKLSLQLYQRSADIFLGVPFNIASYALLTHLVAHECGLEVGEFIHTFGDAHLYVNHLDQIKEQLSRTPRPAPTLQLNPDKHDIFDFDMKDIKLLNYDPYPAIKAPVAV
# T2: Bifunctional dihydrofolate reductase-thymidylate synthase (Toxoplasma gondii, UniProt Q07422)
# T2 sequence (Q07422 whole entry): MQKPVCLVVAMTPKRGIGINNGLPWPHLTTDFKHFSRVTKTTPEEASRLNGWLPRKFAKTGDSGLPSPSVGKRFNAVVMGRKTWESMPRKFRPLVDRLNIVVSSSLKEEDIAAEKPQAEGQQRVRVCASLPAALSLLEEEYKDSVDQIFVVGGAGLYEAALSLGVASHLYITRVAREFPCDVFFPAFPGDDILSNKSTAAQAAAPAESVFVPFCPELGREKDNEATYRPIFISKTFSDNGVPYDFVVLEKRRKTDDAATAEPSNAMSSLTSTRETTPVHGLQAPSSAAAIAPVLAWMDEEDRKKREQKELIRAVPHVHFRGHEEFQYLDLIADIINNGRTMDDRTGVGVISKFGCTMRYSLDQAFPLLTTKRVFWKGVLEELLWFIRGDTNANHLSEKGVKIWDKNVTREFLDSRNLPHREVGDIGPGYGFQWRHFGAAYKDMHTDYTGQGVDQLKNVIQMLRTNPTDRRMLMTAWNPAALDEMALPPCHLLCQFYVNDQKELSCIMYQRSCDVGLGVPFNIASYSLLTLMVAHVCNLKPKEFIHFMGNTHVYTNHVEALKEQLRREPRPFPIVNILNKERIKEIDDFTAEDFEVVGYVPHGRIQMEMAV
# T3: Dihydrofolate reductase (Pneumocystis carinii, UniProt P16184)
# T3 sequence (P16184 whole entry): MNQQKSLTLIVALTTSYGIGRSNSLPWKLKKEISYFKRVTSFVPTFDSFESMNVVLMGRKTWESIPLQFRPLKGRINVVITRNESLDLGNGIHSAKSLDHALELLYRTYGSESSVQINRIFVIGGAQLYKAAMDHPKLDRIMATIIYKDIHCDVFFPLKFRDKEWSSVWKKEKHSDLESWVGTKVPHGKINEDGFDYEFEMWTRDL
# T4: Dihydrofolate reductase (Homo sapiens, UniProt P00374)
# T4 sequence (P00374 whole entry): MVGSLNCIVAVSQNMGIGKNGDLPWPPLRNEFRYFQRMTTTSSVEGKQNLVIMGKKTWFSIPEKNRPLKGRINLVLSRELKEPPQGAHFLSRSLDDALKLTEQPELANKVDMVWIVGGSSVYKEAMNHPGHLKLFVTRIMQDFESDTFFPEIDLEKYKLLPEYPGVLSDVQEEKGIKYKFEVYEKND
# B1: Folylpolyglutamate synthase, mitochondrial (Homo sapiens), Q05932 (protein)
# chain: MSRARSHLRAALFLAAASARGITTQVAARRGLSAWPVPQEPSMEYQDAVRMLNTLQTNAGYLEQVKRQRGDPQTQLEAMELYLARSGLQVEDLDRLNIIHVTGTKGKGSTCAFTECILRSYGLKTGFFSSPHLVQVRERIRINGQPISPELFTKYFWRLYHRLEETKDGSCVSMPPYFRFLTLMAFHVFLQEKVDLAVVEVGIGGAYDCTNIIRKPVVCGVSSLGIDHTSLLGDTVEKIAWQKGGIFKQGVPAFTVLQPEGPLAVLRDRAQQISCPLYLCPMLEALEEGGPPLTLGLEGEHQRSNAALALQLAHCWLQRQDRHGAGEPKASRPGLLWQLPLAPVFQPTSHMRLGLRNTEWPGRTQVLRRGPLTWYLDGAHTASSAQACVRWFRQALQGRERPSGGPEVRVLLFNATGDRDPAALLKLLQPCQFDYAVFCPNLTEVSSTGNADQQNFTVTLDQVLLRCLEHQQHWNHLDEEQASPDLWSAPSPEPGGSASLLLAPHPPHTCSASSLVFSCISHALQWISQGRDPIFQPPSPPKGLLTHPVAHSGASILREAAAIHVLVTGSLHLVGGVLKLLEPALSQ
# Legend:
# Thymidylate synthase [1] = biological target: Thymidylate synthase (Rattus norvegicus, UniProt P45352); experiment: Inhibitory concentration against isolated rat thymidylate synthase
# Thymidylate synthase [2] = biological target: T5, Thymidylate synthase (Homo sapiens, UniProt P04818); experiment: Inhibitory concentration against isolated Thymidylate synthase
# Thymidylate synthase [3] = biological target: T1, Thymidylate synthase; experiment: Inhibitory concentration against isolated Lactobacillus casei Thymidylate synthase; design: species or system Lacticaseibacillus casei
# [4] = biological target: Trifunctional purine biosynthetic protein adenosine-3 (Homo sapiens, UniProt P22102); experiment: Inhibition against GAR transformylase; In active
# [5] = biological target: T6, Bifunctional purine biosynthesis protein ATIC (Homo sapiens, UniProt P31939); experiment: Inhibition against […]-4-carboxamide ribonucleotide formyltransferase (AICAR formyltransferase); inactive
# CCRF-CEM [6] = experiment: Growth inhibition of human T-lymphoblastic leukemia cell line CCRF-CEM in culture; type: functional; details: read-out: ED50 (the source's name)
# Thymidylate synthase [7] = biological target: T5, Thymidylate synthase; experiment: Inhibitory concentration against human Thymidylate synthase(TS)
# FaDu = experiment: Growth inhibition of human squamous cell carcinoma FaDu in culture; type: functional; details: read-out: ED50 (the source's name)
# CCRF-CEM [8] = experiment: Tested for their growth inhibition of CCRF-CEM human leukemia subline resistant as a result of decrease polyglutamylation.; type: functional, cell-based
# Dihydrofolate reductase [9] = biological target: Dihydrofolate reductase (Lactobacillus casei, UniProt P00381); experiment: Inhibitory concentration against isolated Lactobacillus casei Dihydrofolate reductase; design: species or system Lacticaseibacillus casei
# Dihydrofolate reductase [10] = biological target: Dihydrofolate reductase (Escherichia coli, UniProt P0ABQ4)
# Description: Inhibitory concentration against isolated Escherichia coli Dihydrofolate reductase
# [11] = biological target: T2, Bifunctional dihydrofolate reductase-thymidylate synthase
# Description: Inhibitory concentration against isolated Toxoplasma gondii DHFR (dihydrofolate reductase)
# Dihydrofolate reductase [12] = biological target: T3, Dihydrofolate reductase
# Description: Inhibitory concentration against isolated Pneumocystis carinii DHFR (Dihydrofolate reductase)
# Homo sapiens [13] = species on record: Homo sapiens; experiment: Ratio between Vmax and Km for compound as substrate for recombinant human folyl-poly-glutamate synthase (FPGS); type: ADME; details: in vivo
# Dihydrofolate reductase [14] = biological target: T4, Dihydrofolate reductase; experiment: Inhibitory concentration against isolated human Dihydrofolate reductase
# Homo sapiens [15] = species on record: Homo sapiens; experiment: The maximum velocity at which substrate concentration is stabilised is determined for compound as substrate for recombinant human folyl-poly-glutamate synthase (FPGS); type: ADME; details: in vivo
# Thymidylate synthase [16] = biological target: Thymidylate synthase (Escherichia coli, UniProt C3SWJ7); experiment: Inhibitory concentration against isolated Escherichia coli Thymidylate synthase
# carcinoma cell line [17] = experiment: Tested for their inhibition of growth of CCRF-CEM human leukemia on carcinoma cell lines.; type: functional, cell-based
# carcinoma cell line [18] = experiment: Tested for their inhibition of growth of FaDu head on carcinoma cell lines.; type: functional, cell-based; details: Homo sapiens
# CCRF-CEM [19] = experiment: Concentration required to inhibit growth against CCRF-CEM cell; type: functional, cell-based; details: Homo sapiens
# MCF7 = experiment: Cytotoxicity was tested against breast cancer MCF-7 tumor cell lines.; type: functional; details: Homo sapiens
# SF-539 = experiment: Cytotoxicity was tested against CNS cancer SF-539 tumor cell lines.; type: functional; details: Homo sapiens
# NCI-H226 = experiment: Cytotoxicity against non small cell lung cancer NCI-H226 tumor cell lines.; type: functional; details: Homo sapiens
# CCRF-CEM [20] = experiment: Tested for their growth inhibition of CCRF-CEM human leukemia subline resistant as a result of decrease in uptake.; type: functional, cell-based
# MOLT-4 = experiment: Cytotoxicity against leukemia MOLT-4 tumor cell lines.; type: functional; details: Homo sapiens
# HCC 2998 = experiment: Cytotoxicity against colon cancer HCC2998 tumor cell lines.; type: functional; details: Homo sapiens
# CCRF-CEM [21] = experiment: Tested for their growth inhibition of CCRF-CEM human leukemia subline resistant as a result of increase in wild type DHFR protein and activity.; type: functional, cell-based
# ACHN = experiment: Cytotoxicity was tested against renal cancer ACHN tumor cell lines.; type: functional; details: Homo sapiens
# NCI-H460 = experiment: Cytotoxicity against non small cell lung cancer NCI-H460 tumor cell lines.; type: functional; details: Homo sapiens
# HCT-116 = experiment: Cytotoxicity was tested against colon cancer HCT116 tumor cell lines.; type: functional; details: Homo sapiens
# Thymidylate synthase [22] = biological target: T5, Thymidylate synthase; experiment: Inhibitory concentration against human TS
# [23] = biological target: T6, Bifunctional purine biosynthesis protein ATIC; experiment: Inhibition against […]-4-carboxamide ribonucleotide formyltransferase (AICAR formyltransferase); In active
# [24] = substrate: Cc1nc(N)nc2c1c(CCc1ccc(C(=O)N[C@@H](CCC(=O)O)C(=O)O)cc1)cn2Cc1ccccc1; experiment: (§1) Activity as substrate for recombinant human folyl-poly-glutamate synthase (FPGS).
# [25] = substrate: Cc1nc(N)nc2[nH]cc(CCc3ccc(C(=O)N[C@@H](CCC(=O)O)C(=O)O)cc3)c12; experiment: as §1
# Sequence of Dihydrofolate reductase (Lactobacillus casei, UniProt P00381) (P00381 whole entry): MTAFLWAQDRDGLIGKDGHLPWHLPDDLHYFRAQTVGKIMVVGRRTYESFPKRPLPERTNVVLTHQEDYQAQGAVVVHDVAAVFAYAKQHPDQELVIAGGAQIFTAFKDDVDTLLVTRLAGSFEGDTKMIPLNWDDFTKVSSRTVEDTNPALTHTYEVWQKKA
# T5 sequence (P04818 whole entry): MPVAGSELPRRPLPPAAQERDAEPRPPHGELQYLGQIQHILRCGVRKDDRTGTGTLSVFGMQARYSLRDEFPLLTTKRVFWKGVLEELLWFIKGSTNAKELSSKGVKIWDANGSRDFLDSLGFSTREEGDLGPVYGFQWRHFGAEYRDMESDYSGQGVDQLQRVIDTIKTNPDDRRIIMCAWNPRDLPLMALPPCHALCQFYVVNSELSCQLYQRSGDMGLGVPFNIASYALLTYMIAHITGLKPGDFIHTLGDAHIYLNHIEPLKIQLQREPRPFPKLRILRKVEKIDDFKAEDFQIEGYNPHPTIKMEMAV
# Sequence of Thymidylate synthase (Rattus norvegicus, UniProt P45352) (P45352 whole entry): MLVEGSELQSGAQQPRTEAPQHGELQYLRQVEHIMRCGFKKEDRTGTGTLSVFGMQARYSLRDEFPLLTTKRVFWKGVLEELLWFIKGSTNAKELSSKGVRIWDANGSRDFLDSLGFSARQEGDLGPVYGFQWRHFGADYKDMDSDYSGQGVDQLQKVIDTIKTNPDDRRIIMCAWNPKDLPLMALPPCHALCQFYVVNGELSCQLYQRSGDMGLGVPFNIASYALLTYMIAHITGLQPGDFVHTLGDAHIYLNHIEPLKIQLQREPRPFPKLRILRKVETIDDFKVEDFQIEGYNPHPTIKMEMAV
# Sequence of Dihydrofolate reductase (Escherichia coli, UniProt P0ABQ4) (P0ABQ4 whole entry): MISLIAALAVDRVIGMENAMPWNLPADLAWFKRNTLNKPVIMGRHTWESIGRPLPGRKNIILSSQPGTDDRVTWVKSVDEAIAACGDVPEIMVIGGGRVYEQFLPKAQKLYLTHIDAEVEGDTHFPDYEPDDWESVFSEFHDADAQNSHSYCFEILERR
# Sequence of Trifunctional purine biosynthetic protein adenosine-3 (P22102 whole entry): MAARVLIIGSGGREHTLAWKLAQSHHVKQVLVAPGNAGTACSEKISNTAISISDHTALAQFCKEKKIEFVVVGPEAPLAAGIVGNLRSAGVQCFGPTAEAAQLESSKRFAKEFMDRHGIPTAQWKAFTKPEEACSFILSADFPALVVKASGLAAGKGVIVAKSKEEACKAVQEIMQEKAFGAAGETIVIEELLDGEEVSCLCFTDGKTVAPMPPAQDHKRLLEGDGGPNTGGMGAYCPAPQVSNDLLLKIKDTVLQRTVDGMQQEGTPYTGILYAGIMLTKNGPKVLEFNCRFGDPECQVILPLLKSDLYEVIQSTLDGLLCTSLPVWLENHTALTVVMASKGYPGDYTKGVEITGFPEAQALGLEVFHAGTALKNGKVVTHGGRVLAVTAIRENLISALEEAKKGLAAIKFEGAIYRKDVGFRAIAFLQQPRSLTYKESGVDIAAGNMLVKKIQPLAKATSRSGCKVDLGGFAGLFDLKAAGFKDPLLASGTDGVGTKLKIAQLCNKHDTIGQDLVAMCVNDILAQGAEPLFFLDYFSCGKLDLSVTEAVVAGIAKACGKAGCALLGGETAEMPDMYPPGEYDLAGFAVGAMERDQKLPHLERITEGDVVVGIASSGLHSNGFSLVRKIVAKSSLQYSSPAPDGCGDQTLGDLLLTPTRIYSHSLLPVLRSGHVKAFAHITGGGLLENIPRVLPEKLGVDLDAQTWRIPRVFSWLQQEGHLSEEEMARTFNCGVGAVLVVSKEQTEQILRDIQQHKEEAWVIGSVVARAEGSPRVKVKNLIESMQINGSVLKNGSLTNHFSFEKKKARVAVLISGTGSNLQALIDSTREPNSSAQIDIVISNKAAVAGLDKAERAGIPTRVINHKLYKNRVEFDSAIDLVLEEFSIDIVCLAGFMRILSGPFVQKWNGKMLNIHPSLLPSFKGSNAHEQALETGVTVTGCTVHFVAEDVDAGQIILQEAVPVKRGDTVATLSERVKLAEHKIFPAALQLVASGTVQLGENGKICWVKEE
# T6 sequence (P31939 whole entry): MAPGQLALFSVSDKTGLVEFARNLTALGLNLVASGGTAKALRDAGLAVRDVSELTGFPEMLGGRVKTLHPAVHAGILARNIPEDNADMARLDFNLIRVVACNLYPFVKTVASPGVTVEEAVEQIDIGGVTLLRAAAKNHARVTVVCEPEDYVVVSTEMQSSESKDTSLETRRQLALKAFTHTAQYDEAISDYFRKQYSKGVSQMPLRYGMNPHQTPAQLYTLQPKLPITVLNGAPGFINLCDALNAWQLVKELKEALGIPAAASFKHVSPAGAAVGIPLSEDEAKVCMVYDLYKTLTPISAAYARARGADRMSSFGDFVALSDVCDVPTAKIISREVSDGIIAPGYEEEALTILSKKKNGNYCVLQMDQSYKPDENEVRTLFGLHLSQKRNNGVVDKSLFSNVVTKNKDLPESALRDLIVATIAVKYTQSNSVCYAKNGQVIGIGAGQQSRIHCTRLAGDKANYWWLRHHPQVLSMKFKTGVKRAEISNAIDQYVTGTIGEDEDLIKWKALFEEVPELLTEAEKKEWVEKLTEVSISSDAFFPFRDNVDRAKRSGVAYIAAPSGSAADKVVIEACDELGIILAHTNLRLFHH
# Sequence of Thymidylate synthase (Escherichia coli, UniProt C3SWJ7) (C3SWJ7 whole entry): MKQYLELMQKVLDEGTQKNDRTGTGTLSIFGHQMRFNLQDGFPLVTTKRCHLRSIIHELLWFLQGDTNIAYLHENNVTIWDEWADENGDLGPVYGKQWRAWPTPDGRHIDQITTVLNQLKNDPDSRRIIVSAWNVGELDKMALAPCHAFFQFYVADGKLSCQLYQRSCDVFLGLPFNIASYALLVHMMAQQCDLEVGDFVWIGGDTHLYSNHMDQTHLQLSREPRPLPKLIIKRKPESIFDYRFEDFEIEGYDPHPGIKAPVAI
molecule,measurement,setting,value
Nc1nc2[nH]cc(CCc3ccc(C(=O)N[C@@H](CCC(=O)O)C(=O)O)cc3)c2c(=O)[nH]1 [PEMETREXED],IC50,Thymidylate synthase [1],20000 nM
same,IC50,Thymidylate synthase [2],110000 nM
same,IC50,Thymidylate synthase [3],20000 nM
"CN(Cc1coc2nc(N)nc(N)c12)c1ccc(C(=O)N[C@@H](CCC(=O)O)C(=O)O)cc1 [FURO[2,3D]PYRIMIDINE ANTIFOLATE]",IC50,[4],Not Active
same,IC50,[5],Not Active
same,EC50,CCRF-CEM [6],47 nM
same,IC50,Thymidylate synthase [7],> 200000 nM
same,EC50,FaDu,55 nM
Cc1nc2ccc(CN(C)c3ccc(C(=O)N[C@@H](CCC(=O)O)C(=O)O)s3)cc2c(=O)[nH]1 [RALTITREXED],IC50,Thymidylate synthase [1],900 nM
same,IC50,Thymidylate synthase [3],8000 nM
Nc1nc(N)c2c(CNCc3ccc(C(=O)N[C@@H](CCC(=O)O)C(=O)O)cc3)coc2n1,EC50,CCRF-CEM [6],30500 nM
Cc1nc(N)nc2c1c(CCc1ccc(C(=O)N[C@@H](CCC(=O)O)C(=O)O)cc1)cn2Cc1ccccc1,IC50,CCRF-CEM [8],> 20000 nM
same,IC50,Thymidylate synthase [1],> 16000 nM
same,IC50,Dihydrofolate reductase [9],19000 nM
same,IC50,Dihydrofolate reductase [10],> 19000 nM
same,IC50,[11],> 19000 nM
same,IC50,Dihydrofolate reductase [12],> 19000 nM
same,Ratio,Homo sapiens [13],0.02
same,IC50,Dihydrofolate reductase [14],> 19000 nM
same,Vmax,Homo sapiens [15],0.65
same,IC50,Thymidylate synthase [2],> 16000 nM
same,IC50,Thymidylate synthase [16],16000 nM
same,IC50,Thymidylate synthase [3],310 nM
same,IC50,carcinoma cell line [17],> 10000 nM
same,IC50,carcinoma cell line [18],> 20000 nM
same,IC50,CCRF-CEM [19],> 10000 nM
Nc1nc(N)c2c(CCc3ccc(C(=O)N[C@@H](CCC(=O)O)C(=O)O)cc3)coc2n1,EC50,CCRF-CEM [6],250 nM
Cc1nc(N)nc2[nH]cc(CCc3ccc(C(=O)N[C@@H](CCC(=O)O)C(=O)O)cc3)c12,EC50,CCRF-CEM [8],18.5 nM
same,IC50,Thymidylate synthase [1],2000 nM
same,IC50,Dihydrofolate reductase [9],24 nM
same,GI50,MCF7,169 nM
same,GI50,SF-539,< 10 nM
same,IC50,[11],1200 nM
same,GI50,NCI-H226,61.4 nM
same,IC50,Dihydrofolate reductase [12],1200 nM
same,IC50,Dihydrofolate reductase [14],800 nM
same,Vmax,Homo sapiens [15],0.17
same,IC50,Thymidylate synthase [2],1000 nM
same,IC50,Thymidylate synthase [16],2000 nM
same,EC50,CCRF-CEM [20],575 nM
same,GI50,MOLT-4,< 10 nM
same,GI50,HCC 2998,< 10 nM
same,EC50,CCRF-CEM [21],158 nM
same,IC50,Thymidylate synthase [3],9000 nM
same,EC50,carcinoma cell line [17],12.5 nM
same,GI50,ACHN,< 10 nM
same,EC50,carcinoma cell line [18],7 nM
same,GI50,NCI-H460,< 10 nM
same,EC50,CCRF-CEM [19],12.5 nM
same,GI50,HCT-116,7110 nM
Nc1nc(N)c2nc(CNc3ccc(C(=O)N[C@@H](CCC(=O)O)C(=O)O)cc3)cnc2n1 [AMINOPTERIN],Ratio,Homo sapiens [13],0.21
same,Vmax,Homo sapiens [15],1
Nc1nc(N)c2c(CNc3ccc(C(=O)N[C@@H](CCC(=O)O)C(=O)O)cc3)coc2n1,IC50,[4],Not Active
same,IC50,Thymidylate synthase [22],> 200000 nM
same,IC50,[23],Not Active
Cc1cn([C@@H]2O[C@H](COP(=O)(O)O)[C@@H](O)[C@H]2O)c(=O)[nH]c1=O,IC50,Dihydrofolate reductase [9],350 nM
same,IC50,Dihydrofolate reductase [10],20 nM
same,IC50,[11],3400 nM
same,IC50,Dihydrofolate reductase [12],15000 nM
same,IC50,Dihydrofolate reductase [14],340000 nM
B1,Km,[24],37 µM
same,Km,[25],< 1 µM
